From ChEMBL document CHEMBL5325470, “Design, synthesis and mechanism studies of dual EZH2/BRD4 inhibitors for cancer therapy” (Bioorg Med Chem, 2023)
Active and inactive are the calls of the source. No cut-off for these calls is given here.

Key:
[1] = biological target: T1, Histone-lysine N-methyltransferase EZH2 (Homo sapiens, UniProt Q15910); assay: Inhibition of EZH2 (unknown origin)
Target sequence in this assay (Q15910 whole entry): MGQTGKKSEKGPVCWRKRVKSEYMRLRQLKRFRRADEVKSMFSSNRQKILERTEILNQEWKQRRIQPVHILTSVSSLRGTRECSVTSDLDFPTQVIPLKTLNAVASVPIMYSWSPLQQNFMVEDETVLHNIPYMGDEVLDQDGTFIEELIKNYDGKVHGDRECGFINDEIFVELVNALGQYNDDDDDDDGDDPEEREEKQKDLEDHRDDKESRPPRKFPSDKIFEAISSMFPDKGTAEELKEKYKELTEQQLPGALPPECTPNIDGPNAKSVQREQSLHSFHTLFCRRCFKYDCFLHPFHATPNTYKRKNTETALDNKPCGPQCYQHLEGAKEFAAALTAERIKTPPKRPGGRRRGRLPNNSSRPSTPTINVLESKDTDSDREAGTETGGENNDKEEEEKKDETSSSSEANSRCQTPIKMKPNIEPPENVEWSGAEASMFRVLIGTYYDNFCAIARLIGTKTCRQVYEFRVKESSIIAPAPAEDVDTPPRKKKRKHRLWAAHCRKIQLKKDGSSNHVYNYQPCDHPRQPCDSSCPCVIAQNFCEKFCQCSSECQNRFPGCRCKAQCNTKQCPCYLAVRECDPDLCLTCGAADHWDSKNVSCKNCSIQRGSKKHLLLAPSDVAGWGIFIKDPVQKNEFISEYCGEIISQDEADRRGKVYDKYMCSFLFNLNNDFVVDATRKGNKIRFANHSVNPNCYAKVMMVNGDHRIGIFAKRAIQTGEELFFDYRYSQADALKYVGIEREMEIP

HCT-116 [2] = assay: Antiproliferative activity against human HCT-116 cells assessed as reduction in number of colonies incubated for 48 hrs with replacement of normal media every day for 14 days; type: functional, cell-based; conditions: dose 2-8 µM
MDA-MB-231 [3] = assay: Antiproliferative activity against human MDA-MB-231 cells incubated for 72 hrs by MTT assay; type: functional, cell-based; conditions: MDA-MB-231, 72 h
[4] = biological target: T2, Bromodomain-containing protein 4 (Homo sapiens, UniProt O60885); assay: Inhibition of BRD4 in human MDA-MB-231 cells assessed as reduction in c-Myc level at 2 to 8 uM incubated for 48 hrs by Western blotting analysis; type: cell-based; conditions: dose 2-8 µM
BT-549 = assay: Antiproliferative activity against human BT-549 cells incubated for 72 hrs by MTT assay; type: functional, cell-based; conditions: BT-549, 72 h
A549 [5] = assay: Induction of apoptosis in human A549 cells assessed as reduction in Bcl-2 protein expression at 2 to 8 uM incubated for 48 hrs by Western blotting analysis; type: functional, cell-based; conditions: dose 2-8 µM
A549 [6] = assay: Inhibition of PRC2 in human A549 cells assessed as reduction in H3K27me3 level at 2 to 8 uM incubated for 48 hrs by Western blotting analysis; type: cell-based; conditions: dose 2-8 µM
[7] = biological target: T1, Histone-lysine N-methyltransferase EZH2; assay: Inhibition of EZH2 in human MDA-MB-231 cells assessed as decrease in H3K27ac level at 2 to 8 uM incubated for 48 hrs by Western blotting analysis; type: cell-based; conditions: dose 2-8 µM
Target sequence in this assay (Q15910 whole entry, looked up): as the sequence (Q15910 whole entry) above

HCT-116 [8] = assay: Induction of apoptosis in human HCT-116 cells at 2 to 8 uM incubated for 48 hrs by Annexin V-PE/7-AAD staining based flow cytometry analysis; type: functional, cell-based; conditions: dose 2-8 µM
[9] = Binding affinity to recombinant PRC2 complex (unknown origin) incubated for 3 hrs in presence of SAM; set-up: species or system Homo sapiens
A549 [10] = assay: Antiproliferative activity against human A549 cells incubated for 72 hrs by MTT assay; type: functional, cell-based; conditions: A549, 72 h
[11] = biological target: T2, Bromodomain-containing protein 4; assay: Inhibition of BRD4 in human A549 cells assessed as increase in p21 level at 2 to 8 uM incubated for 48 hrs by Western blotting analysis; type: cell-based; conditions: dose 2-8 µM
HCT-116 [12] = assay: Antiproliferative activity against human HCT-116 cells incubated for 72 hrs by MTT assay; type: functional, cell-based; conditions: HCT-116, 72 h
[13] = biological target: T1, Histone-lysine N-methyltransferase EZH2; assay: Inhibition of EZH2 in human A549 cells assessed as decrease in H3K27ac level at 18 uM incubated for 48 hrs by Western blotting analysis; type: cell-based
Target sequence in this assay (Q15910 whole entry, looked up): as the sequence (Q15910 whole entry) above

[14] = biological target: T1, Histone-lysine N-methyltransferase EZH2; assay: Inhibition of EZH2 in human HCT-116 cells assessed as decrease in H3K27ac level at 12 uM incubated for 48 hrs by Western blotting analysis; type: cell-based
Target sequence in this assay (Q15910 whole entry, looked up): as the sequence (Q15910 whole entry) above

[15] = biological target: T2, Bromodomain-containing protein 4; assay: Inhibition of BRD4 in human A549 cells assessed as reduction in c-Myc level at 2 to 8 uM incubated for 48 hrs by Western blotting analysis; type: cell-based; conditions: dose 2-8 µM
[16] = biological target: T2, Bromodomain-containing protein 4; assay: Inhibition of BRD4 in human HCT-116 cells assessed as reduction in c-Myc level at 2 to 8 uM incubated for 48 hrs by Western blotting analysis; type: cell-based; conditions: dose 2-8 µM
[17] = biological target: T1, Histone-lysine N-methyltransferase EZH2; assay: Inhibition of EZH2 in human HCT-116 cells assessed as decrease in H3K27ac level at 2 to 8 uM incubated for 48 hrs by Western blotting analysis; type: cell-based; conditions: dose 2-8 µM
Target sequence in this assay (Q15910 whole entry, looked up): as the sequence (Q15910 whole entry) above

[18] = biological target: T1, Histone-lysine N-methyltransferase EZH2; assay: Inhibition of EZH2 in human A549 cells assessed as decrease in H3K27ac level at 2 to 8 uM incubated for 48 hrs by Western blotting analysis; type: cell-based; conditions: dose 2-8 µM
Target sequence in this assay (Q15910 whole entry, looked up): as the sequence (Q15910 whole entry) above

HCT-116 [19] = assay: Inhibition of PRC2 in human HCT-116 cells assessed as reduction in H3K27me3 level at 2 to 8 uM incubated for 48 hrs by Western blotting analysis; type: cell-based; conditions: dose 2-8 µM
[20] = biological target: T2, Bromodomain-containing protein 4; assay: Inhibition of BRD4 BD1 (unknown origin) incubated for 15 mins by TR-FRET method
MDA-MB-231 [21] = assay: Inhibition of PRC2 in human MDA-MB-231 cells assessed as reduction in H3K27me3 level at 2 to 8 uM incubated for 48 hrs by Western blotting analysis; type: cell-based; conditions: dose 2-8 µM
[22] = biological target: T1, Histone-lysine N-methyltransferase EZH2; assay: Inhibition of EZH2 in human MDA-MB-231 cells assessed as decrease in H3K27ac level at 12 uM incubated for 48 hrs by Western blotting analysis; type: cell-based
Target sequence in this assay (Q15910 whole entry, looked up): as the sequence (Q15910 whole entry) above

HCT-116 [23] = assay: Induction of cell cycle arrest in human HCT-116 cells assessed as accumulation of cells at G0/G1 phase at 2 to 8 uM incubated for 48 hrs by RNAase-A and PI staining based flow cytometry analysis; type: functional; conditions: dose 2-8 µM
[24] = biological target: T2, Bromodomain-containing protein 4; assay: Inhibition of BRD4 in human MDA-MB-231 cells assessed as increase in p21 level at 2 to 8 uM incubated for 48 hrs by Western blotting analysis; type: cell-based; conditions: dose 2-8 µM
A549 [25] = assay: Induction of apoptosis in human A549 cells assessed as […] in Bax protein expression at 2 to 8 uM incubated for 48 hrs by Western blotting analysis; type: functional, cell-based; conditions: dose 2-8 µM
[26] = biological target: T2, Bromodomain-containing protein 4; assay: Inhibition of BRD4 in human HCT-116 cells assessed as increase in p21 level at 2 to 8 uM incubated for 48 hrs by Western blotting analysis; type: cell-based; conditions: dose 2-8 µM
Cell membrane = assay: Induction of mitochondrial membrane potential loss in human HCT-116 cells assessed as decrease in red fluorescence incubated for 48 hrs by flow cytometry analysis; conditions: Mitochondria, dose 2-8 µM

SMILES: Cc1cc(C)c(CNC(=O)c2cc(NCCCCCNC(=O)C[C@@H]3N=C(c4ccc(Cl)cc4)c4c(sc(C)c4C)-n4c(C)nnc43)cc3c2cnn3C(C)C)c(=O)[nH]1
- IC50 [1]: 0.082 µM
- Activity (HCT-116 [2]): Dose-Dependent Effect
- IC50 (MDA-MB-231 [3]): 2.31 µM
- inhibition [4]: Active
- IC50 (BT-549): 3.97 µM
- Activity (A549 [5]): Active
- inhibition (A549 [6]): Active
- inhibition [7]: Active
- Activity (HCT-116 [8]): Active
- Kd [9]: 0.18 µM
- IC50 (A549 [10]): 4.63 µM
- inhibition [11]: Active
- IC50 (HCT-116 [12]): 1.86 µM
- inhibition [13]: inactive
- inhibition [14]: inactive
- inhibition [15]: Active
- inhibition [16]: Active
- inhibition [17]: Active
- inhibition [18]: Active
- inhibition (HCT-116 [19]): Active
- IC50 [20]: 0.134 µM
- inhibition (MDA-MB-231 [21]): Active
- inhibition [22]: inactive
- Activity (HCT-116 [23]): Active
- inhibition [24]: Active
- Activity (A549 [25]): Active
- inhibition [26]: Active
- Activity (Cell membrane): Dose-Dependent Effect
